By EC50 is commonly meant the concentration that produces a half-maximal response.

The test system of this test is HCV 1b-Con1 replicon. Put plainly: HCV 1b-Con1 replicon assay in the presence of 5% FBS. Format: cell-based. The note with it: Hepatitis C virus. On the technique in general: In antiviral work, replicon cells carry a viral genome segment that copies itself.
Regarding `COC(=O)N[C@H](C(=O)N1CCC[C@H]1c1nc2c(F)c([C@H]3CC[C@H](c4ccc5nc([C@@H]6CCCN6C(=O)[C@@H](NC(=O)OC)C(C)C)[nH]c5c4F)N3c3ccc(C(C)(C)C)cc3)ccc2[nH]1)C(C)C` [Example 6.3, methyl {(2S)-1-[(2S)-2-{5-[(2R,5R)-1-(4-tert-butylphenyl)-5-{7-fluoro-2-[(2S)-1-{(2S)-2-[(methoxycarbonyl)amino]-3-methylbutanoyl}pyrrolidin-2-yl]-1H-benzimidazol-6-yl}pyrrolidin-2-yl]-4-fluoro-1H-benzimidazol-2-yl}pyrrolidin-1-yl]-3-methyl-1-oxobutan-2-yl}carbamate], the EC50 was less than 100 pM. In the case of `COC(=O)N[C@H](C(=O)N1CCC[C@H]1c1nc2ccc([C@H]3CC[C@H](c4ccc5nc([C@@H]6CCCN6C(=O)[C@@H](NC(=O)OC)C(C)C)[nH]c5c4)N3c3cc(F)c(N4CCC(CCCc5ccccc5)CC4)c(F)c3)cc2[nH]1)C(C)C` [Example 2.10, methyl {(2S)-1-[(2S)-2-{5-[(2R,5R)-1-{3,5-difluoro-4-[4-(3-phenylpropyl)piperidin-1-yl]phenyl}-5-{2-[(2S)-1-{(2S)-2-[(methoxycarbonyl)amino]-3-methylbutanoyl}pyrrolidin-2-yl]-1H-benzimidazol-5-yl}pyrrolidin-2-yl]-1H-benzimidazol-2-yl}pyrrolidin-1-yl]-3-methyl-1-oxobutan-2-yl}carbamate], the EC50 was less than 100 pM. Under `COC(=O)N[C@H](C(=O)N1CCC[C@H]1c1nc2c(F)c([C@H]3CC[C@@H](c4ccc5nc([C@@H]6CCCN6C(=O)[C@@H](NC(=O)OC)C(C)C)[nH]c5c4F)N3c3ccc(C(C)(C)C)cc3)ccc2[nH]1)C(C)C` [Example 6.4, methyl {(2S)-1-[(2S)-2-{5-[(2R,5S)-1-(4-tert-butylphenyl)-5-{7-fluoro-2-[(2S)-1-{(2S)-2-[(methoxycarbonyl)amino]-3-methylbutanoyl}pyrrolidin-2-yl]-1H-benzimidazol-6-yl}pyrrolidin-2-yl]-4-fluoro-1H-benzimidazol-2-yl}pyrrolidin-1-yl]-3-methyl-1-oxobutan-2-yl}carbamate] stands less than 100 pM; under `COC(=O)N[C@H](C(=O)N1CCC[C@H]1c1nc2cc([C@H]3CC[C@H](c4ccc5nc([C@@H]6CCCN6C(=O)[C@@H](NC(=O)OC)C(C)C)[nH]c5c4)N3c3ccc(C4CCCCC4)c(F)c3)ccc2[nH]1)C(C)C` [Example 4.8, methyl {(2S)-1-[(2S)-2-{5-[(2R,5R)-1-(4-cyclohexyl-3-fluorophenyl)-5-{2-[(2S)-1-{(2S)-2-[(methoxycarbonyl)amino]-3-methylbutanoyl}pyrrolidin-2-yl]-1H-benzimidazol-6-yl}pyrrolidin-2-yl]-1H-benzimidazol-2-yl}pyrrolidin-1-yl]-3-methyl-1-oxobutan-2-yl}carbamate], less than 100 pM.

Take `COC(=O)N[C@H](C(=O)N1CCC[C@H]1c1nc2cc([C@H]3CC[C@H](c4ccc5[nH]c([C@@H]6CCCN6C(=O)[C@@H](NC(=O)OC)C(C)C)nc5c4)N3c3ccc(-c4ccccc4)cc3)ccc2[nH]1)C(C)C` [Example 3.5, methyl {(2S)-1-[(2S)-2-{5-[(2R,5R)-1-(biphenyl-4-yl)-5-{2-[(2S)-1-{(2S)-2-[(methoxycarbonyl)amino]-3-methylbutanoyl}pyrrolidin-2-yl]-1H-benzimidazol-5-yl}pyrrolidin-2-yl]-1H-benzimidazol-2-yl}pyrrolidin-1-yl]-3-methyl-1-oxobutan-2-yl}carbamate]: the EC50 was less than 100 pM. Take `COC(=O)N[C@H](C(=O)N1CCC[C@H]1c1nc2ccc([C@H]3CC[C@H](c4ccc5nc([C@@H]6CCCN6C(=O)[C@@H](NC(=O)OC)C(C)C)[nH]c5c4)N3c3cc(F)c(N4CCC(c5ccc6ccccc6c5)CC4)c(F)c3)cc2[nH]1)C(C)C` [Example 2.12, methyl {(2S)-1-[(2S)-2-{5-[(2R,5R)-1-{3,5-difluoro-4-[4-(2-naphthyl)piperidin-1-yl]phenyl}-5-{2-[(2S)-1-{(2S)-2-[(methoxycarbonyl)amino]-3-methylbutanoyl}pyrrolidin-2-yl]-1H-benzimidazol-5-yl}pyrrolidin-2-yl]-1H-benzimidazol-2-yl}pyrrolidin-1-yl]-3-methyl-1-oxobutan-2-yl}carbamate]: the EC50 is less than 100 pM.

On to `COC(=O)N[C@H](C(=O)N1CCC[C@H]1c1nc2ccc([C@H]3CC[C@H](c4ccc5nc([C@@H]6CCCN6C(=O)[C@@H](NC(=O)OC)C(C)C)[nH]c5c4)N3c3cc(F)c(N4CC(C)CC(C)C4)c(F)c3)cc2[nH]1)C(C)C` (stereo partly drawn) [Example 5.7, methyl {(2S)-1-[(2S)-2-{6-[(2R,5R)-1-[4-(3,5-dimethylpiperidin-1-yl)-3,5-difluorophenyl]-5-{2-[(2S)-1-{(2S)-2-[(methoxycarbonyl)amino]-3-methylbutanoyl}pyrrolidin-2-yl]-1H-benzimidazol-6-yl}pyrrolidin-2-yl]-1H-benzimidazol-2-yl}pyrrolidin-1-yl]-3-methyl-1-oxobutan-2-yl}carbamate], for which the EC50 is less than 100 pM.

For `COC(=O)N[C@H](C(=O)N1CCC[C@H]1c1nc2cc(C3CCC(c4cc5nc([C@@H]6CCCN6C(=O)[C@@H](NC(=O)OC)C(C)C)[nH]c5cc4F)N3c3cc(F)c(N4C[C@@H](C)O[C@@H](C)C4)c(F)c3)c(F)cc2[nH]1)C(C)C` (stereo partly drawn) [Example 4.51], the EC50 was less than 100 pM. Under `COC(=O)N[C@H](C(=O)N1[C@H](c2nc3cc([C@H]4CC[C@H](c5ccc6[nH]c([C@@H]7C[C@@H]8CCC[C@@H]8N7C(=O)[C@@H](NC(=O)OC)C7CCOCC7)nc6c5)N4c4cc(F)c(N5CCCCC5)c(F)c4)ccc3[nH]2)C[C@@H]2CCC[C@@H]21)C(C)C` [Example 10.1, methyl [(1S)-2-[(2S,3aS,6aS)-2-{5-[(2R,5R)-1-[3,5-difluoro-4-(piperidin-1-yl)phenyl]-5-{2[(2S,3aS,6aS)-1-{(2S)-2-[(methoxycarbonyl)amino]-3-methylbutanoyl}octahydrocyclopenta[b]pyrrol-2-yl]-1H-benzimidazol-5-yl}pyrrolidin-2-yl]-1H-benzimidazol-2-yl}hexahydrocyclopenta[b]pyrrol-1(2H)-yl]-2-oxo-1-(tetrahydro-2H-pyran-4-yl)ethyl]carbamate] stands less than 100 pM; under `COC(=O)N[C@H](C(=O)N1CCC[C@H]1c1nc2cc([C@H]3CC[C@H](c4ccc5[nH]c([C@@H]6CCCN6C(=O)[C@@H](NC(=O)OC)C(C)C)nc5c4)N3c3ccc(N4CCCCC4)c(C)c3)ccc2[nH]1)C(C)C` [Example 4.2, methyl {(2S)-1-[(2S)-2-(5-{(2R,5R)-5-{2-[(2S)-1-{(2S)-2-[(methoxycarbonyl)amino]-3-methylbutanoyl}pyrrolidin-2-yl]-1H-benzimidazol-5-yl}-1-[3-methyl-4-(piperidin-1-yl)phenyl]pyrrolidin-2-yl}-1H-benzimidazol-2-yl)pyrrolidin-1-yl]-3-methyl-1-oxobutan-2-yl}carbamate], less than 100 pM; under `COC(=O)N[C@H](C(=O)N1CCC[C@H]1c1nc2cc([C@H]3CC[C@H](c4cc5nc([C@@H]6CCCN6C(=O)[C@@H](NC(=O)OC)[C@@H](C)OC)[nH]c5cc4F)N3c3cc(F)c(N4CCN(c5ccc(C(F)(F)F)cc5)CC4)c(F)c3)c(F)cc2[nH]1)[C@@H](C)OC` [Example 6.15, methyl {(2S,3R)-1-[(2S)-2-{5-[(2R,5R)-1-(3,5-difluoro-4-{4-[4-(trifluoromethyl)phenyl]piperazin-1-yl}phenyl)-5-(6-fluoro-2-{(2S)-1-[N-(methoxycarbonyl)-O-methyl-L-threonyl]pyrrolidin-2-yl}-1H-benzimidazol-5-yl)pyrrolidin-2-yl]-6-fluoro-1H-benzimidazol-2-yl}pyrrolidin-1-yl]-3-methoxy-1-oxobutan-2-yl}carbamate], less than 100 pM. Under `COC(=O)N[C@H](C(=O)N1CCC[C@H]1c1nc2cc([C@H]3CC[C@H](c4ccc5[nH]c([C@@H]6CCCN6C(=O)[C@@H](NC(=O)OC)C(C)C)nc5c4)N3c3cc(F)c(N4CCC5(CCCCC5)CC4)c(F)c3)ccc2[nH]1)C(C)C` [Example 5.12, methyl {(2S)-1-[(2S)-2-{5-[(2R,5R)-1-[4-(3-azaspiro[5.5]undec-3-yl)-3,5-difluorophenyl]-5-{2-[(2S)-1-{(2S)-2-[(methoxycarbonyl)amino]-3-methylbutanoyl}pyrrolidin-2-yl]-1H-benzimidazol-5-yl}pyrrolidin-2-yl]-1H-benzimidazol-2-yl}pyrrolidin-1-yl]-3-methyl-1-oxobutan-2-yl}carbamate] stands less than 100 pM; under `COC(=O)N[C@H](C(=O)N1CCC[C@H]1c1nc2cc([C@H]3CC[C@H](c4ccc5[nH]c(C6CCCC6)nc5c4)N3c3cc(F)c(N4CCC(c5ccccc5)CC4)c(F)c3)ccc2[nH]1)C(C)C` [Example 11.2, methyl {(2S)-1-[(2S)-2-(5-{(2R,5R)-5-(2-cyclopentyl-1H-benzimidazol-5-yl)-1-[3,5-difluoro-4-(4-phenylpiperidin-1-yl)phenyl]pyrrolidin-2-yl}-1H-benzimidazol-2-yl)pyrrolidin-1-yl]-3-methyl-1-oxobutan-2-yl}carbamate], less than 100 pM. In the case of `COC(=O)N[C@H](C(=O)N1CCC[C@H]1c1nc2cc([C@H]3CC[C@H](c4ccc5[nH]c([C@@H]6CCCN6C(=O)[C@@H](NC(=O)OC)C(C)C)nc5c4)N3c3cc(F)c(N4CCC(C(C)C)CC4)c(F)c3)ccc2[nH]1)C(C)C` [Example 4.22, methyl {(2S)-1-[(2S)-2-{5-[(2R,5R)-1-{3,5-difluoro-4-[4-(propan-2-yl)piperidin-1-yl]phenyl}-5-{2-[(2S)-1-{(2S)-2-[(methoxycarbonyl)amino]-3-methylbutanoyl}pyrrolidin-2-yl]-1H-benzimidazol-5-yl}pyrrolidin-2-yl]-1H-benzimidazol-2-yl}pyrrolidin-1-yl]-3-methyl-1-oxobutan-2-yl}carbamate], the EC50 was less than 100 pM.

In the case of `COC(=O)N[C@H](C(=O)N1CCC[C@H]1c1nc2cc([C@H]3CC[C@H](c4cc5nc([C@@H]6CCCN6C(=O)[C@@H](NC(=O)OC)C(C)C)[nH]c5cc4F)N3c3cc(F)c(N4CCC(c5ccccc5)CC4)c(F)c3)c(F)cc2[nH]1)C(C)C` [Example 6.11, methyl {(2S)-1-[(2S)-2-{5-[(2R,5R)-1-[3,5-difluoro-4-(4-phenylpiperidin-1-yl)phenyl]-5-{6-fluoro-2-[(2S)-1-{(2S)-2-[(methoxycarbonyl)amino]-3-methylbutanoyl}pyrrolidin-2-yl]-1H-benzimidazol-5-yl}pyrrolidin-2-yl]-6-fluoro-1H-benzimidazol-2-yl}pyrrolidin-1-yl]-3-methyl-1-oxobutan-2-yl}carbamate], the EC50 is less than 100 pM.

The record behind these values is patent US20120220562A1, “Anti-Viral Compounds” (ABBOTT LABAORATORIES, priority 2011, published 2012).
